For orientation: IC50 means the point on the concentration scale where inhibition reaches its midpoint. Usually IC80 stands for the point of the concentration-response curve where the effect stands at 80%.

Molecules are shown by their SMILES.

In the experiment the test system is ENaC. Nature of the experiment: FLIPR assay of sodium transport in recombinant HEK cells over expressing ENaC. Conditions: recombinant HEK cells expressing ENaC. Format: cell-based, human. The procedure: Recombinant HEK293 cell line (expressing ENaC beta & gamma) SCNN1B (P618AY620L)+SCNN1G (P624stop) #24. were grown at 37 deg in the presence of CO2 and were cultured in M1 medium M1+0.5 mg/ml geneticin and 0.2 mg/ml hygromycin.
Functional Effects on ENaC via FLIPR in Cells Over Expressing ENaCa: A reverse transfection methodology was used to transfect the HEK recombinant cell line. 5 ul of siRNA (diluted in Optimem to the appropriate concentration) was mixed with 5 ul of the Gemini lipid transfection reagent diluted in Optimem in 384 well non-coated FLIPR plate. Plates were incubated at room temperature for 20 minutes to allow complex formation. Cells were harvested, spun down, diluted to 3×10^5/ml and plated out at 40 ul/well (12K/well) in 384 well plate format containing the transfection complex. The plates were incubated overnight for 20 hours. The cells were then transduced with BacMam virus expressing ENaC alpha (BacMam viruses expressing SCNN1A, GRITS 29703, titre 0.356×10^8/ml). 30 ul of virus was added (1.7%) 20K/well, MOI was approximately 1. Cells were incubated for 24 hours. On day of the FLIPR assay, media was aspirated, leaving 10 ul volume. 20 ul of dye per well was loaded (FMP2 Blue dye, R8181, MDS. For each pot, 133 ml Tyrodes buffer was diluted to make 1× stock prior to assay). The plate was incubated for 0.5 hours at room temperature and 10 ul of the compound added on-line prior to FLIPR read (FLIPR settings: protocol Na MP.fcf, with Exposure length 0.4 sec and Filter #2). Compound plate: 1 ul volume, column 1, 2 and 3 are 16, 4 and 0 uM amiloride final (1/200 dilution) (IC80, IC50 and ctrl).

With `N=C(N)NC(=O)c1nc(Cl)c(N)nc1N` [Amiloride, reference compound], the IC50 (read-out: IC50 of inhibitor in FLIPR assay) amounted to 4 µM. For the same molecule, under “read-out: IC80 of inhibitor in FLIPR assay”, the 80% effect concentration (IC80) is 16 µM.

Values taken from patent US20110288154A1, “RNA Interference Mediated Inhibition of Epithelial Sodium Channel (ENaC) Gene Expression Using Short Interfering Nucleic Acid (siNA)” (MERCK & CO., INC., priority 2008, published 2011).
